From US6288100A, “Benzimidazole derivatives” (American Home Products Corporation, priority 1995, dated 2001)
Counter-ions that a name gives are not always drawn.

Assays:
[1] = system: porcine aortic smooth muscle cells; experiment: Porcine smooth muscle cell antiproliferation, serum stimulation (3H thymidine incorporation); assay type: cell-based; conditions: serum-stimulated
Description: (§2) The ability of the compounds of the present invention to inhibit smooth muscle cell proliferation was established using isolated porcine aortic smooth muscle cells in a modification of the procedure of Castellot et al. J. Biol. Chem 257(19) 11256 (1982), as follows:
(§3) Fresh porcine aortas, scrupulously cleansed of fatty tissue, are rinsed in sterile phosphate-buffered saline with 2% antibiotic-antimycotic (100×) liquid (10,000 units of penicillin (base), 10,000 μg of streptomycin (base), and 25 μg of amphotericin B/mL utilizing penicillin G (sodium salt), streptomycin sulfate, and amphotericin B as Fungizone® in 0.85% saline, available from Gibco Laboratories, Grand Island Biological Co., Grand Island, N.Y.). The tissue is then digested in 10-15 mL of an enzyme solution containing collagenase type I, 165 U/mL; elastase type III, 15 U/mL; BSA, 2 mg/mL; and soybean trypsin inhibitor, 0.375 mg/mL, followed by incubation at 37° C. under 5% CO2 atmosphere for 10 to 15 minutes. After this treatment, the outer surface adventitia is removed by peeling with a forceps. The aorta is then longitudinally cut and laid open and the endothelial layer is removed by scraping.
(§4) The medial layer of cells is rinsed in the enzyme solution, and placed in a new 100 mm dish with 10 mL of enzyme solution. The medial layer of cells is minced using a fine pair of scissors and digested for 2-3 hours at 37° C. in 30 mL of fresh enzyme solution. After digestion, the medial tissue is homogenized using a sterile Pasteur pipette with a fire polished tip or an Eppendorf pipetter with a 200-1000 μL sterile pipette tip. The suspension is then centrifuged for 10 minutes at 8000 rpm and the pellet is suspended in 4-6 mL of fresh enzyme solution and plated onto 4-6 100 mm flasks with vented caps. The cells are then allowed to grow to confluence and split using 0.25% trypsin. The cells are evaluated for purity and overall quality using antibody to SMC actin.
(§5) The cells are assayed in early passage (generally passage 3-7) at sub-confluent conditions. Cultures are grown in 16 mm (24 well) multi-well culture dishes in media 199 supplemented with 10% fetal bovine serum and 2% antibiotic/antimycotic. At subconfluence, the cells are placed in a defined serum free, lymphocyte medium (AIM-V; Gibco) for 24-48 hours prior to initiating the experimental protocoL
(§6) The standard test procedure is initiated by addition of the test compound, ^3 H thymidine and serum or a specific growth factor to the serum deprived synchronized cells. Growth factor and serum stimulations are optimized for each cell type. The test compounds are added to each well at 50 fold dilution (20 μL/well) and the plates are incubated for 24-36 hours at 37° C. in 5% CO2 atmosphere. Test compounds are dissolved in 50% ethanol and assayed at 1, 10, and 100 μM. As a control, RG 50872 (Bilder, G. A.; et al., Am. J. Cell Physiol., 1991; 260: C721) is routinely assayed under the conditions of each cell preparation at a concentration of 5 μM.
(§7) At the completion of the experiment, the plates are placed on ice, washed three times with ice cold PBS and incubated in ice cold 10% trichloroacetic acid (TCA) for 30 minutes to remove acid soluble proteins. Each solution is transferred to a scintillation vial containing 0.4N HCl (500 μL/vial to neutralize NaOH) and each well is rinsed two times with water (500 μL) for a total volume of 2 mL/vial.
(§8) Data is quantitated by subjecting the vials to a scintillation counter, in triplicate, for both control and experimental samples. […] Experimental data is obtained from cells maximally stimulated with growth factor or serum and treated with a test compound. (The platelet-derived growth factor used in the assay was human recombinant PDGF-AB purchased from Upstate Biotechnology Inc., Lake Placid, N.Y.). Data is expressed as a percent of control from which IC50 s are determined.

[2] = system: porcine aortic smooth muscle cells; experiment: Porcine smooth muscle cell antiproliferation, PDGF stimulation (3H thymidine incorporation); assay type: cell-based; conditions: PDGF-stimulated (human recombinant PDGF-AB)
Description: as §2, §3, §4, §5, §6, §7, §8

[3] = system: porcine smooth muscle cells; experiment: Cytotoxicity, modified MTT assay, % viable cells; assay type: cell-based; design: dose or concentration left out as unconfirmed; conditions: serum-free medium, 24 hours, 37° C.
Description: (§1) To distinguish cytotoxicity from the ability of a compound to prevent proliferation, the test compounds were examined using a commercial modification of the MTT assay. Briefly, cells were grown in 24 well plates to 70-80% confluency. The cells were serum deprived for 24-48 hours prior to initiation of the experimental protocol. To insure that the MTT assay monitored toxicity rather than proliferation, the cells were incubated with […] test compound in fresh medium without serum for 24 hours at 37° C. in a humidified CO2 incubator. Upon completion of the compound treatment, MTT indicator dye was added for 4 hours at 37° C. Cells were then solubilized and aliquots from each well were transferred to a 96-well plate for analysis. Absorbance at 570 nm wavelength with a reference wavelength of 630 nm was recorded using an ELISA plate reader.

[4] = Cytotoxicity, modified MTT assay, % viable cells; assay type: cell-based, porcine; design: dose or concentration left out as unconfirmed; conditions: pig, smooth muscle cells, serum-free medium, 37° C.
Description: as §1

Row | Compound | inhibition at 20 µM ([1]; Sus scrofa, 20 μM) [%] | IC50 ([2]; Sus scrofa) [µM] | viability at 24 h [4] [%] | IC50 ([1]; Sus scrofa) [µM] | also measured
1 | 4-[5-(Hydroxy-(phenyl)-methyl)-2-propyl -benzoimidazol-1-ylmethyl]-benzoic acid [Example 6] |  |  |  |  | Porcine Smooth Muscle Cell Antiproliferation, Serum, % Inhibition at 20 μM ([1]; 20 μM): 45.9%; IC50 [2]: 11.2 µM; Cytotoxicity, % Viable Cells [3]: 85.5%
2 | CCCc1nc2cc(C(=O)c3ccccc3)ccc2n1Cc1ccc(Cl)c(Cl)c1 [Example 8, [1-(3,4-Dichloro-benzyl)-2-propyl-1H-benzoimidazol-5-yl]-phenyl-methanone] | 90 | 0.096 to 0.465 | 100 |  | 
3 | CCCc1nc2ccc(C(=O)c3ccccc3)cc2n1Cc1ccc(C(=O)O)cc1 [Example 4, 4-(6-Benzoyl-2-propyl-benzoimidazol-1-ylmethyl) benzoic acid] | 61.8 |  | 100 |  | Porcine Smooth Muscle Cell Antiproliferation, PDGF, % Inhibition (concentration not given) ([2]; concentration not given): 0%
4 | O=C(c1ccccc1)c1ccc2[nH]c(-c3ccc(OC(F)(F)F)cc3)nc2c1 [Example 11, Phenyl-[2-(4-trifluoromethoxy-phenyl)-1H -benzoimidazol-5-yl]methanone] |  | 7.7 | 100 | 1.82 | 
5 | CCCc1nc2cc(C(=O)c3ccccc3)ccc2n1Cc1ccc(C(=O)O)cc1 [Example 5, 4-(5-Benzoyl-2-propyl-benzoimidazol-1-ylmethyl)-benzoic acid] | 41 | 15.9 | 78 |  | 
6 | CCCc1nc2cc(C(=O)c3ccccc3)ccc2n1Cc1ccc(C(=O)OCC)cc1 [Example 2, 4-(5-Benzoyl-2-propyl-benzoimidazol-1-ylmethyl) -benzoic acid ethyl ester] |  | 1.17 | 100 | 1.04 | 
7 | COc1ccc(Cc2nc3cc(C(=O)c4ccccc4)ccc3[nH]2)cc1OC [Example 12, [2-(3,4-Dimethoxybenzyl)-1H-benzoimidazol-5-yl]-phenyl-methanone] |  | 0.081 to 0.14 | 100 | 7.74 | 
8 | CCCCCCOc1ccc(-c2nc3cc(C(=O)c4ccccc4)ccc3[nH]2)cc1OC [Example 10, [2-(4-Hexyloxy-3-methoxy-phenyl)-1H benzoimidazol-5-yl]phenyl-methanone] |  | 0.762 | 100 | 13.5 | 
9 | CCCc1nc2ccc(C(=O)c3ccccc3)cc2n1Cc1ccc(C(=O)OCC)cc1 [Example 3, 4-(6-Benzoyl-2-propyl-benzoimidazol-1-ylmethyl) -benzoic acid ethyl ester] |  | 1.23 | 100 | 1.58 | 
10 | CCCc1nc2cc(C(O)c3ccccc3)ccc2n1Cc1ccc(C(=O)O)cc1 (stereo not drawn) [Example 7, 4-[5-(Hydroxy-(phenyl)-methyl)-2-propyl-benzoimidazol-1-ylmethyl]-benzoic acid hydrochloride] |  | 17.6 | 85 |  | inhibition at 10 µM ([1]; Sus scrofa, 10 μM): 36%
11 | CCCc1nc2cc(C(=O)c3ccccc3)ccc2[nH]1 [Example 1, Phenyl-(2-propyl-1H-benzoimidazol-5-yl)-methanone] | 39.4 | 12.9 | 80 |  | 
12 | COc1cc(-c2nc3cc(C(=O)c4ccccc4)ccc3[nH]2)ccc1O [Example 9, [2-(4-Hydroxy-3-methoxy-phenyl)1H-benzoimidazol-5-yl]-phenyl-methanone] |  | 3.74 to 4.14 | 100 | 8.03 to 11.4 | 
